Laboratory results as given in PubChem BioAssay (NCI).
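Grown in 96-well plates, cells were treated for 48 hours with each compound at five concentrations. Insufficient inhibition: endpoint recorded as highest concentration tested. TGI: total growth inhibition.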

What was measured:
Assay in all cases: NCI-60 cell line screen, 48 h
[1] = test system: RPMI-8226 leukemia
[2] = test system: MOLT-4 leukemia
[3] = test system: OVCAR-4 ovarian
[4] = test system: 786-0 renal
[5] = test system: SNB-19 CNS
[6] = test system: TK-10 renal
[7] = test system: HL-60(TB) leukemia
[8] = test system: IGROV1 ovarian
[9] = test system: K-562 leukemia
[10] = test system: RXF 393 renal
[11] = test system: SF-539 CNS
[12] = test system: MDA-N
[13] = test system: BT-549 breast
[14] = test system: NCI-H226 lung
[15] = test system: LOX IMVI melanoma
[16] = test system: NCI-H460 lung
[17] = test system: NCI/ADR-RES ovarian
[18] = test system: SK-OV-3 ovarian
[19] = test system: UACC-62 melanoma
[20] = test system: OVCAR-3 ovarian

Row | Compound | TGI [1] [µM] | TGI [2] [µM] | TGI [3] [µM] | TGI [4] [µM] | TGI [5] [µM] | TGI [6] [µM] | TGI [7] [µM] | TGI [8] [µM] | TGI [9] [µM] | TGI [10] [µM] | TGI [11] [µM] | TGI [12] [µM] | TGI [13] [µM] | TGI [14] [µM] | TGI [15] [µM] | TGI [16] [µM] | TGI [17] [µM] | TGI [18] [µM] | TGI [19] [µM] | TGI [20] [µM]
1 | C#CCOC(=O)c1ccccc1OC(C)=O | > 100 | > 100 | > 100 | > 100 | > 100 | > 100 | > 100 | > 100 | > 100 | > 100 | > 100 | > 100 | > 100 | > 100 | > 100 | > 100 | > 100 | > 100 | > 100 | –
2 | O=C1c2ccccc2C(=O)N1c1ccc(OCCN2CCCCC2)cc1 | > 100 | > 100 | > 100 | > 100 | > 100 | > 100 | > 100 | > 100 | > 100 | > 100 | > 100 | > 100 | > 100 | > 100 | > 100 | > 100 | > 100 | > 100 | > 100 | > 100
3 | COC/C=C\[C@@]1(O)CCCC[C@@H]1CC(OC)OC | 70.9 | 31.4 | > 76.4 | > 100 | > 100 | > 100 | > 28.4 | > 55.6 | > 100 | > 92.1 | > 100 | > 100 | > 100 | > 100 | 20.9 | > 90 | > 100 | > 100 | – | > 100
4 | NC(CCCCNc1ccn(C2OC(CO)C(O)C2O)c(=O)n1)C(=O)O (stereo not given) | > 100 | > 100 | > 100 | > 100 | > 100 | > 100 | > 100 | > 100 | > 100 | > 100 | > 100 | > 100 | > 100 | > 100 | > 100 | > 100 | > 100 | – | > 100 | > 100
5 | NC(=O)N(O)c1cccc(Br)c1 | > 100 | > 100 | > 100 | > 100 | > 100 | > 100 | > 100 | > 100 | > 100 | > 100 | > 100 | > 100 | > 100 | > 100 | > 100 | > 100 | > 100 | > 100 | > 100 | > 100
6 | Cc1cccc2c1C(=O)C(C1OC(=O)c3ccccc31)C2 (stereo not given) | > 100 | > 100 | > 100 | > 100 | > 100 | > 100 | > 100 | > 100 | > 100 | > 100 | > 100 | > 100 | > 100 | > 100 | > 100 | > 100 | > 100 | > 100 | > 100 | > 100
7 | Cc1cn(C2CC(N=[N+]=[N-])C(CO[Si](C)(C)C(C)(C)C)O2)c(=O)[nH]c1=O (stereo not given) | 47.1 | > 100 | 28.1 | 29.1 | 38.3 | 30.5 | 72.4 | 37.3 | 47.6 | 32.3 | 35.6 | 34.2 | 23.7 | 29.6 | 31.5 | – | 36 | 37.1 | 29.8 | 34.9
8 | Cn1c(=O)n(CC(Br)CBr)c(=O)n(CC(Br)CBr)c1=O (stereo not given) | 63.8 | 87.1 | > 100 | > 100 | > 100 | > 100 | 58 | > 100 | > 100 | > 100 | 61.1 | > 100 | > 100 | 58.9 | 34.9 | > 100 | > 100 | > 100 | 72.8 | > 100
9 | O=[N+]([O-])C1(C2([N+](=O)[O-])CCCC2)CCCC1 | > 100 | > 100 | > 100 | > 100 | > 100 | > 100 | > 100 | > 100 | > 100 | > 100 | > 100 | > 100 | > 100 | > 100 | > 100 | > 100 | > 100 | > 100 | > 100 | > 100
10 | O/N=C\c1cc(O)c(O)c(/C=N/O)c1 | > 100 | > 100 | > 100 | – | > 100 | > 100 | > 100 | > 100 | > 100 | > 100 | > 100 | > 100 | > 100 | 78.6 | > 100 | > 100 | > 100 | > 100 | > 100 | > 100
